Like-named read-outs stand apart in the source and are kept apart here.
Key:
human μ opiate receptor = target: T1, human μ opiate receptor (Homo sapiens, UniProt P35372); test: Affinity for the human μ opiate receptor ([3H]-naloxone displacement, CHO-K1 receptor membrane preparation, SPA); assay type: binding; conditions: 1.5 h, test concentration 1 μM
T1 construct: purchased PerkinElmer Life Sciences, Zaventem, Belgium RB-HOM; host or cells: CHO-K1 cells (membrane preparation)
Method in brief: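 Test compounds, 1 nmol/l [3H]-naloxone and CHO-K1 membranes bearing the human μ opiate receptor are combined with WGA-SPA beads. After 90 minutes at room temperature, plates are centrifuged and radioactivity counted. Specific-binding inhibition at 1 μmol/l is given in percent.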

[1] = target: T2, human bradykinin 1 receptor (B1R) (Homo sapiens, UniProt P46663); test: Functional investigation on the human bradykinin 1 receptor (B1R), Ca2+ FLIPR assay in CHO K1 hB1R cells; assay type: cell-based; conditions: test substance 10 μM; for inhibition at 10 µM: CHO-K1, B1R antagonism human, read-out: B1R Ant. h [10 μM] % Inhibition
T2 construct: expressed in transfected cells; host or cells: CHO K1 cells
T2 sequence (P46663 1-353): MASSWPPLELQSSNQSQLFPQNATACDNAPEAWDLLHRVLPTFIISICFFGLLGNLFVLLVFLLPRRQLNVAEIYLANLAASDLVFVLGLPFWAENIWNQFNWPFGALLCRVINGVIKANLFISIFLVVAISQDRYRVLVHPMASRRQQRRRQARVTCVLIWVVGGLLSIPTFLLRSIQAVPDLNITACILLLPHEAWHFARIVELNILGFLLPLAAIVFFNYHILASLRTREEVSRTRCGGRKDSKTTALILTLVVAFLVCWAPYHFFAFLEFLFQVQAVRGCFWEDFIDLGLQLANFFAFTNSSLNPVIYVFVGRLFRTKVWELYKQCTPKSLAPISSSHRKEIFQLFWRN
Method in brief: (§1)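 Fluo-4 Ca2+ readout, peak fluorescence. Stable CHO K1 transfectants; compound pre-incubated 10-20 min, then EC80 agonist—Lys-Des-Arg9-BK for hB1R, Des-Arg9-BK for rB1R. % inhibition vs maximal inhibition; IC50 from multiple concentrations, duplicate/triplicate, ≥2 independent runs.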

[2] = target: T3, bradykinin 1 receptor (B1R) of the rat (Rattus norvegicus, UniProt P97583); test: Functional investigation on the rat bradykinin 1 receptor (B1R), Ca2+ FLIPR assay in CHO K1 rB1R cells; assay type: cell-based; conditions: test substance 10 μM; for inhibition at 10 µM: CHO-K1, B1R antagonism rat, read-out: B1R Ant. r [10 μM] % Inhibition
T3 construct: expressed in transfected cells; host or cells: CHO K1 cells
T3 sequence (P97583 1-337): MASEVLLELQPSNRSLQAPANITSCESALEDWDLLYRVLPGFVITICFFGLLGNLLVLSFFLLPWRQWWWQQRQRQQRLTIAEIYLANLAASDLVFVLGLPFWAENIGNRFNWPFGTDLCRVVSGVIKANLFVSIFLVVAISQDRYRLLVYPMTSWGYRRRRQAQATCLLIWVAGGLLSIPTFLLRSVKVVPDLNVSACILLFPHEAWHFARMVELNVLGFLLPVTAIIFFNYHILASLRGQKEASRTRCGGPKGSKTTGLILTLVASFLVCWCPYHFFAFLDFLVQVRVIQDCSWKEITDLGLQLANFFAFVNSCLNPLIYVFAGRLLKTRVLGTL
Method in brief: as §1

[3] = Table 3, to be read in the same way as Table 1, read-out: μ
[4] = % inhibition compared with the maximum achievable inhibition

T1 sequence (P35372 whole entry): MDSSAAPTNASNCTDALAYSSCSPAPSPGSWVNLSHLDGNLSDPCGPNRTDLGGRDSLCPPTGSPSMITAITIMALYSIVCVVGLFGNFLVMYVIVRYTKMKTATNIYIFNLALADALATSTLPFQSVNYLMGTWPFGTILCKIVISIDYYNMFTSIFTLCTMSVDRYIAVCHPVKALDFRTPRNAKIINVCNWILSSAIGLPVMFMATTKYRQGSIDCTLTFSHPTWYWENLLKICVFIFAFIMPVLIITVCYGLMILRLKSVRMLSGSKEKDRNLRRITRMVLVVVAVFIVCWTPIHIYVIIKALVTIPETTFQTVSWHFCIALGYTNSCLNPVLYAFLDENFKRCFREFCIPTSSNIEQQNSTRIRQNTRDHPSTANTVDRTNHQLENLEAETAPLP

Row | Compound | inhibition at 1 µM (human μ opiate receptor; [3]) [%] | inhibition at 10 µM ([1]; Ca2+ FLIPR, CHO K1 hB1R cells) [%] | inhibition at 10 µM ([2]; Ca2+ FLIPR, CHO K1 rB1R cells) [%] | inhibition at 10 µM [1, 4] [%] | inhibition at 10 µM [2, 4] [%] | inhibition at 1 µM (human μ opiate receptor; Table 2, read-out: μ receptor) [%] | B1R Ant. h [10 μM] % Inhibition ([1]; B1R antagonism human, Ca2+ FLIPR, CHO K1 hB1R cells) [%] | B1R Ant. r [10 μM] % Inhibition ([2]; B1R antagonism rat, Ca2+ FLIPR, CHO K1 rB1R cells) [%]
1 | COc1cc(C)c(S(=O)(=O)N2CCCCC2COCC(=O)NCC2CCC(C(CCc3ccccc3)N3CCOCC3)CC2)c(C)c1 (stereo not drawn) [Example 753, 2-((1-(4-methoxy-2,6-dimethylphenylsulfonyl)piperidin-2-yl)methoxy)-N-((4-(1-morpholino-3-phenylpropyl)cyclohexyl)methyl)acetamide] | 17 | 104 | 103 |  |  |  |  | 
2 | O=C(COC1CCCN(S(=O)(=O)c2c(Cl)cc(Cl)cc2Cl)C1)NCC1CCC(C(c2ccccc2)N2CCOCC2)CC1 (stereo not drawn) [Example 707, N-((4-(morpholino(phenyl)methyl)cyclohexyl)methyl)-2-(1-(2,4,6-trichlorophenylsulfonyl)piperidin-3-yloxy)acetamide] | 28 | 2 | 25 |  |  |  |  | 
3 | COc1cc(C)c(S(=O)(=O)N2CCCC2COCC(=O)NC2CCC(C(c3ccccc3)N3CCCC3)CC2)c(C)c1 (stereo not drawn) [Example 632, 2-((1-(4-methoxy-2,6-dimethylphenylsulfonyl)pyrrolidin-2-yl)methoxy)-N-(4-(phenyl(pyrrolidin-1-yl)methyl)cyclohexyl)acetamide] | 68 | 105 | 75 |  |  |  |  | 
4 | COc1cc(C)c(S(=O)(=O)N2CCCCC2COCC(=O)N2CCC(C(Cc3ccccc3)N3CCN(C)CC3)CC2)c(C)c1 (stereo not drawn) [Example 802, 2-((1-(4-methoxy-2,6-dimethylphenylsulfonyl)piperidin-2-yl)methoxy)-1-(4-(1-(4-methylpiperazin-1-yl)-2-phenylethyl)piperidin-1-yl)ethanone] | 27 |  |  | 106 | 97 |  |  | 
5 | O=C(COC1CCN(S(=O)(=O)c2c(Cl)cc(Cl)cc2Cl)C1)NCC1CCC(C(c2ccccc2)N2CCCC2)CC1 (stereo not drawn) [Example 644, N-((4-(phenyl(pyrrolidin-1-yl)methyl)cyclohexyl)methyl)-2-(1-(2,4,6-trichlorophenylsulfonyl)pyrrolidin-3-yloxy)acetamide] | 59 | 73 | 52 |  |  |  |  | 
6 | COc1cc(C)c(S(=O)(=O)N2CCCCC2COCC(=O)NC2CCC(C(c3ccccc3)N3CCN(C)CC3)CC2)c(C)c1 (stereo not drawn) [Example 735, 2-((1-(4-methoxy-2,6-dimethylphenylsulfonyl)piperidin-2-yl)methoxy)-N-(4-((4-methylpiperazin-1-yl)(phenyl)methyl)cyclohexyl)acetamide] | 56 | 103 | 103 |  |  |  |  | 
7 | CN(CCOCC(=O)NC1CCC(C(CCc2ccccc2)N2CCCCC2)CC1)S(=O)(=O)c1c(Cl)cc(Cl)cc1Cl (stereo not drawn) [Example 637, N-(4-(3-phenyl-1-(piperidin-1-yl)propyl)cyclohexyl)-2-(2-(2,4,6-trichloro-N-methylphenylsulfonamido)ethoxy)acetamide] | 35 | 85 | 45 |  |  |  |  | 
8 | CN(C)C(Cc1ccccc1)C1CCC(NC(=O)COCCN(C)S(=O)(=O)c2c(Cl)cc(Cl)cc2Cl)CC1 (stereo not drawn) [Example 616, N-[4-(1-dimethylamino-2-phenylethyl)-cyclohexyl]-2-{2-[methyl-(2,4,6-trichlorobenzenesulfonyl)-amino]-ethoxy}-acetamide] |  | 100 | 43 |  |  | 64 |  | 
9 | COc1cc(C)c(S(=O)(=O)N2CCC(OCC(=O)NC3CCC(C(CCc4ccccc4)N4CCOCC4)CC3)C2)c(C)c1 (stereo not drawn) [Example 668, 2-(1-(4-methoxy-2,6-dimethylphenylsulfonyl)pyrrolidin-3-yloxy)-N-(4-(1-morpholino-3-phenylpropyl)cyclohexyl)acetamide] | 10 | 88 | 64 |  |  |  |  | 
10 | COc1cc(C)c(S(=O)(=O)N(C)CCOCC(=O)N2CCC(C(c3ccc(F)cc3)N3CCN(C)CC3)CC2)c(C)c1 (stereo not drawn) [Example 804, N-(2-(2-(4-((4-fluorophenyl)(4-methylpiperazin-1-yl)methyl)piperidin-1-yl)-2-oxoethoxy)ethyl)-4-methoxy-N,2,6-trimethylbenzenesulfonamide] | 9 |  |  | 105 | 100 |  |  | 
11 | O=C(COC1CCN(S(=O)(=O)c2c(Cl)cc(Cl)cc2Cl)C1)NC1CCC(C(CCc2ccccc2)N2CCOCC2)CC1 (stereo not drawn) [Example 666, N-(4-(1-morpholino-3-phenylpropyl)cyclohexyl)-2-(1-(2,4,6-trichlorophenylsulfonyl)pyrrolidin-3-yloxy)acetamide] | 6 | 11 | 5 |  |  |  |  | 
12 | O=C(COCC1CCCCN1S(=O)(=O)c1c(Cl)cc(Cl)cc1Cl)NCC1CCC(C(CCc2ccccc2)N2CCOCC2)CC1 (stereo not drawn) [Example 754, N-((4-(1-morpholino-3-phenylpropyl)cyclohexyl)methyl)-2-((1-(2,4,6-trichlorophenylsulfonyl)piperidin-2-yl)methoxy)acetamide] | 2 | 47 | 76 |  |  |  |  | 
13 | COc1cc(C)c(S(=O)(=O)N(C)CCOCC(=O)NC2CCC(C(CCc3ccccc3)N3CCCCC3)CC2)c(C)c1 (stereo not drawn) [Example 663, 2-(2-(4-methoxy-N,2,6-trimethylphenylsulfonamido)ethoxy)-N-(4-(3-phenyl-1-(piperidin-1-yl)propyl)cyclohexyl)acetamide] | 26 | 103 | 95 |  |  |  |  | 
14 | CN(CCOCC(=O)NCC1CCC(C(CCc2ccccc2)N2CCOCC2)CC1)S(=O)(=O)c1c(Cl)cc(C(F)(F)F)cc1Cl (stereo not drawn) [Example 728, 2-(2-(2,6-dichloro-N-methyl-4-(trifluoromethyl)phenylsulfonamido)ethoxy)-N-((4-(1-morpholino-3-phenylpropyl)cyclohexyl)methyl)acetamide] | 12 | -9 | 9 |  |  |  |  | 
15 | CN(CCOCC(=O)NC1CCC(C(c2ccccc2)N2CCOCC2)CC1)S(=O)(=O)c1c(Cl)cc(Cl)cc1Cl (stereo not drawn) [Example 638, N-(4-(morpholino(phenyl)methyl)cyclohexyl)-2-(2-(2,4,6-trichloro-N-methylphenylsulfonamido)ethoxy)acetamide] | 2 |  |  |  |  |  | 37 | 21
16 | O=C(COCC1CCCN1S(=O)(=O)c1c(Cl)cc(Cl)cc1Cl)NCC1CCC(C(CCc2ccccc2)N2CCOCC2)CC1 (stereo not drawn) [Example 751, N-((4-(1-morpholino-3-phenylpropyl)cyclohexyl)methyl)-2-((1-(2,4,6-trichlorophenylsulfonyl)pyrrolidin-2-yl)methoxy)acetamide] | 32 | 45 | 73 |  |  |  |  | 
17 | COc1cc(C)c(S(=O)(=O)N2CCCCC2COCC(=O)N2CCC(C(c3cccc(F)c3)N3CCN(C)CC3)CC2)c(C)c1 (stereo not drawn) [Example 800, 1-(4-((3-fluorophenyl)(4-methylpiperazin-1-yl)methyl)piperidin-1-yl)-2-((1-(4-methoxy-2,6-dimethylphenylsulfonyl)piperidin-2-yl)methoxy)ethanone] | 7 |  |  | 108 | 97 |  |  | 
18 | COc1cc(C)c(S(=O)(=O)N2CCCCC2COCC(=O)NCC2CCC(C(c3ccccc3)N3CCCC3)CC2)c(C)c1 (stereo not drawn) [Example 657, 2-((1-(4-methoxy-2,6-dimethylphenylsulfonyl)piperidin-2-yl)methoxy)-N-((4-(phenyl(pyrrolidin-1-yl)methyl)cyclohexyl)methyl)acetamide] | 84 | 104 | 105 |  |  |  |  | 

Source: patent US8106055B2, “Substituted amide compounds” (Gruenenthal GmbH, priority 2007, dated 2012)
